The values that follow are results of earlier work, collected in paper PMC9516332 (Frontiers in Oncology, 2022).

Like-named read-outs stand apart in the source and are kept apart here.

What all share (conditions): cited from earlier work
Data set [1] concerns the target panel of 255 wild-type kinases (Homo sapiens, UniProt Q9Y243).
The target of data set [2] is panel of 255 wild-type kinases (Homo sapiens, UniProt P08581).
The target in data set [3] is panel of 255 wild-type kinases (Homo sapiens, UniProt Q13153).
Data set [4] has as its target panel of 255 wild-type kinases (Homo sapiens, UniProt P06493).
For data set [5], the target named is panel of 255 wild-type kinases (Homo sapiens, UniProt O00311).
Data set [6] deals with T1, panel of 255 wild-type kinases (Homo sapiens, UniProt Q16566).
T1 sequence (Q16566 1-473): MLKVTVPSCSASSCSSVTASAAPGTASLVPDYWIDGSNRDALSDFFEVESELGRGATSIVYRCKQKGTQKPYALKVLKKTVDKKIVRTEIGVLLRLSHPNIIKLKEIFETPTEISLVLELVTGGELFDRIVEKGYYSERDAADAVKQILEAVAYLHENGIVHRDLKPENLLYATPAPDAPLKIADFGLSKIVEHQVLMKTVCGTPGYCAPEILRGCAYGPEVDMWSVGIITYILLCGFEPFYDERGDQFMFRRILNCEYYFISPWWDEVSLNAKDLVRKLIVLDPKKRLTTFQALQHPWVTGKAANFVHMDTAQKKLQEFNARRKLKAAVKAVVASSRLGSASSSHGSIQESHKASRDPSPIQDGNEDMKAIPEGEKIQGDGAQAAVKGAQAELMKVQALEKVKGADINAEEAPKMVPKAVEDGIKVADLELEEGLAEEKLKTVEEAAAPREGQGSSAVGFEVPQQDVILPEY

In data set [7] the target is panel of 255 wild-type kinases (Homo sapiens, UniProt Q15418).
Data set [8] has as its target panel of 255 wild-type kinases (Homo sapiens, UniProt Q15375).
For data set [9], the target named is panel of 255 wild-type kinases (Homo sapiens, UniProt P41240).
Data set [10] addresses panel of 255 wild-type kinases (Homo sapiens, UniProt P06241).
Data set [11] deals with panel of 255 wild-type kinases (Homo sapiens, UniProt P51451).
Data set [12] deals with panel of 255 wild-type kinases (Homo sapiens, UniProt P49137).
The target in data set [13] is T2, panel of 255 wild-type kinases (Homo sapiens, UniProt Q13188).
T2 sequence (Q13188 1-491): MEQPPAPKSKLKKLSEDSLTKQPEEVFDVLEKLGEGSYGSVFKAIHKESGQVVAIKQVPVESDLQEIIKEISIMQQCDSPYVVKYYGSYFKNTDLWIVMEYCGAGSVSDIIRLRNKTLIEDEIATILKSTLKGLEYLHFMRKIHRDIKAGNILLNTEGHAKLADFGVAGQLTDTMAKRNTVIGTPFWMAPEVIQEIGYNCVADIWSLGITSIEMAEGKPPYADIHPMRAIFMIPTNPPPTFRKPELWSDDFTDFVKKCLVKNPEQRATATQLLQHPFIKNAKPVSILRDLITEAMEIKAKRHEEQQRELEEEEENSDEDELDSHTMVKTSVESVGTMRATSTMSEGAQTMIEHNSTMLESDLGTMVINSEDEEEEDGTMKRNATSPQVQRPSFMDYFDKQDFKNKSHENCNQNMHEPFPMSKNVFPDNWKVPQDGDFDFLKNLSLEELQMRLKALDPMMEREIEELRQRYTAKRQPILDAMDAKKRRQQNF

For data set [14], the system named is panel of 255 wild-type kinases.
The target in data set [15] is panel of 255 wild-type kinases (Homo sapiens, UniProt P31751).
[16] abbreviates: AKT3 kinase assay, 1 µmol/L single concentration, ref DOI: 10.1158/1535-7163.MCT-18-0877.
[17] abbreviates: MET, 1 µmol/L single concentration, ref DOI: 10.1158/1535-7163.MCT-18-0877.
Setting [18] is: PAK1, 1 µmol/L single concentration, ref DOI: 10.1158/1535-7163.MCT-18-0877.
Setting [19] is: CDC2/CycB1 kinase assay, 1 µmol/L single concentration, ref DOI: 10.1158/1535-7163.MCT-18-0877.
The mark [20] stands for this setting: CDC7/ASK kinase assay, 1 µmol/L single concentration, ref DOI: 10.1158/1535-7163.MCT-18-0877.
Where [21] appears, read: CaMK4 kinase assay, 1 µmol/L single concentration, ref DOI: 10.1158/1535-7163.MCT-18-0877.
Where [22] appears, read: kinase RSK1, 1 µmol/L single concentration, ref DOI: 10.1158/1535-7163.MCT-18-0877.
The mark [23] stands for this setting: kinase EPHA7, 1 µmol/L single concentration, ref DOI: 10.1158/1535-7163.MCT-18-0877.
[24] abbreviates: kinase CSK, 1 µmol/L single concentration, ref DOI: 10.1158/1535-7163.MCT-18-0877.
[25] abbreviates: kinase FYN [isoform a], 1 µmol/L single concentration, ref DOI: 10.1158/1535-7163.MCT-18-0877.
Where [26] appears, read: BLK kinase assay, 1 µmol/L single concentration, ref DOI: 10.1158/1535-7163.MCT-18-0877.
The mark [27] stands for this setting: kinase MAPKAPK2, 1 µmol/L single concentration, ref DOI: 10.1158/1535-7163.MCT-18-0877.
[28] abbreviates: MST2, 1 µmol/L single concentration, ref DOI: 10.1158/1535-7163.MCT-18-0877.
[29] abbreviates: kinase FYN [isoform b], 1 µmol/L single concentration, ref DOI: 10.1158/1535-7163.MCT-18-0877.
The mark [30] stands for this setting: kinase LYNb, 1 µmol/L single concentration, ref DOI: 10.1158/1535-7163.MCT-18-0877.
Where [31] appears, read: kinase PKCβ2, 1 µmol/L single concentration, ref DOI: 10.1158/1535-7163.MCT-18-0877.
Where [32] appears, read: kinase SRM, 1 µmol/L single concentration, ref DOI: 10.1158/1535-7163.MCT-18-0877.
Setting [33] is: AKT2 kinase assay, 1 µmol/L single concentration, ref DOI: 10.1158/1535-7163.MCT-18-0877.

`CC#CC(=O)N1CCC[C@H]1c1nc(-c2ccc(C(=O)Nc3ccccn3)cc2)c2c(N)nccn12` [acalabrutinib]: the “%-inhibition AKT3” value in data set [1] (setting [16]) is recorded as -5%. Moreover, the “%-inhibition, MET” value in [2] (setting [17]) is listed as 4%. Besides, in data set [3] (setting [18]), the “%-inhibition, PAK1” value is -0.369%. The “%-inhibition CDC2/CycB1” value in data set [4] (setting [19]) is reported as -0.397%. Also, the “%-inhibition CDC7/ASK” value in data set [5] (setting [20]) is -1.64%. The “%-inhibition CaMK4” value in data set [6] (setting [21]) is -8.42%. In data set [7] (setting [22]), the “%-inhibition at 1 µmol/L, RSK1” value is 3.57%. For the same compound, the “%-inhibition at 1 µmol/L, EPHA7” value in data set [8] (setting [23]) was -3.54%. For the same compound, the “%-inhibition at 1 µmol/L, CSK” value in [9] (setting [24]) is reported as 7%. Further, the “%-inhibition at 1 µmol/L, FYN [isoform a]” value (“%-inhibition … [isoform a]” below) in data set [10] (setting [25]) is given as 6%. The “%-inhibition BLK” value in [11] (setting [26]) was 8.43%. Also, the “%-inhibition at 1 µmol/L, MAPKAPK2” value in data set [12] (setting [27]) is -21%. The “%-inhibition, MST2” value in [13] (setting [28]) is -3.46%. The “%-inhibition at 1 µmol/L, FYN [isoform b]” value (“%-inhibition … [isoform b]” below) in data set [14] (setting [29]) is -1.25%. In addition, the “%-inhibition at 1 µmol/L, LYNb” value in data set [14] (setting [30]) was -2%. Also, the “%-inhibition at 1 µmol/L, PKCβ2” value in data set [14] (setting [31]) is given as -12%. Also, in data set [14] (setting [32]), the “%-inhibition at 1 µmol/L, SRM” value was 39%. Also, in data set [15] (setting [33]), the “%-inhibition AKT2” value is given as -2.69%.
Take `CCc1cc2c(cc1N1CCC(N3CCOCC3)CC1)C(C)(C)c1[nH]c3cc(C#N)ccc3c1C2=O` [alectinib]: the “%-inhibition AKT3” value in [1] (setting [16]) is given as -0.889%. Moreover, the “%-inhibition, MET” value in data set [2] (setting [17]) is listed as 8%. Moreover, the “%-inhibition, PAK1” value in data set [3] (setting [18]) was -14%. Also, in data set [4] (setting [19]), the “%-inhibition CDC2/CycB1” value is listed as 3.54%. The “%-inhibition CDC7/ASK” value in data set [5] (setting [20]) was -0.8%. In addition, in [6] (setting [21]), the “%-inhibition CaMK4” value was -4%. The “%-inhibition at 1 µmol/L, RSK1” value in data set [7] (setting [22]) is reported as 15%. The “%-inhibition at 1 µmol/L, EPHA7” value in data set [8] (setting [23]) is 1.58%. In data set [9] (setting [24]), the “%-inhibition at 1 µmol/L, CSK” value is listed as 6%. In addition, in data set [10] (setting [25]), the “%-inhibition … [isoform a]” value is 15%. Also, the “%-inhibition BLK” value in data set [11] (setting [26]) was 17%. The “%-inhibition at 1 µmol/L, MAPKAPK2” value in data set [12] (setting [27]) is on record as -5.66%. Besides, the “%-inhibition, MST2” value in data set [13] (setting [28]) is recorded as -1.42%. Also, the “%-inhibition … [isoform b]” value in [14] (setting [29]) is 12%. Moreover, the “%-inhibition at 1 µmol/L, LYNb” value in [14] (setting [30]) was 15%. For the same compound, the “%-inhibition at 1 µmol/L, PKCβ2” value in data set [14] (setting [31]) is recorded as 0.0492%. For the same compound, the “%-inhibition at 1 µmol/L, SRM” value in data set [14] (setting [32]) is reported as 41%. The “%-inhibition AKT2” value in data set [15] (setting [33]) is listed as 0.306%.
Regarding `COc1cc(N2CCC(N3CCN(C)CC3)CC2)ccc1Nc1ncc(Cl)c(Nc2ccccc2P(C)(C)=O)n1` [brigatinib], the “%-inhibition AKT3” value in data set [1] is given as -0.864%. For the same compound, the “%-inhibition, MET” value in [2] is 41%. Also, the “%-inhibition, PAK1” value in [3] is 4.27%. Also, the “%-inhibition CDC2/CycB1” value in data set [4] is listed as 61%. For the same compound, the “%-inhibition CDC7/ASK” value in [5] was 0.868%. The “%-inhibition CaMK4” value in [6] is reported as 13%. Also, the “%-inhibition at 1 µmol/L, RSK1” value in data set [7] is reported as 98%. Besides, in data set [8], the “%-inhibition at 1 µmol/L, EPHA7” value is 21%. Also, the “%-inhibition at 1 µmol/L, CSK” value in data set [9] was 9%. Also, the “%-inhibition … [isoform a]” value in data set [10] is recorded as 69%. For the same compound, in data set [11], the “%-inhibition BLK” value is 83%. The “%-inhibition at 1 µmol/L, MAPKAPK2” value in [12] is -14%. Besides, in [13], the “%-inhibition, MST2” value is 20%. In data set [14], the “%-inhibition … [isoform b]” value is recorded as 56%; the “%-inhibition at 1 µmol/L, LYNb” value is 43%; the “%-inhibition at 1 µmol/L, PKCβ2” value is listed as 31%; the “%-inhibition at 1 µmol/L, SRM” value is recorded as 92%. The “%-inhibition AKT2” value in [15] is -1%.
